Laboratory results: US10323019B2, “Pyrazolylaminobenzimidazole derivatives as JAK inhibitors” (Eli Lilly and Company, priority 2016, dated 2019)

Key:
JAK1 [1] = target: T1, JAK1 (Homo sapiens (Human), UniProt P23458); assay: JAK LanthaScreen Kinase Assay (TR-FRET), JAK1 in vitro enzyme assay; format: biochemical; conditions: 20.0 μM ATP
Description: (§1) The JAK LanthaScreen™ Kinase Assay (Invitrogen) is used to determine the ability of test compounds to inhibit JAK1, JAK2, and JAK3 kinase activity. These are TR-FRET assay formats that use long-lifetime terbium labeled antibody as the donor species and GFP-STAT1 as the acceptor species. Use the TR-FRET ratio to monitor JAK kinase activity where an increase in phosphorylation of the GFP-STAT1 results in an increase in the TR-FRET ratio. Perform the kinase reaction using a 12.5 μl reaction volume in shallow black 384-well Proxiplate®. Add reagents to obtain final reaction conditions of […], 1.76 mM Triton X-100, ATP (20.0 μM for JAK1 and JAK3 or 5 μM for JAK2) enzyme assays, 10.0 mM MgCl2, 1 mM EGTA and 0.01% Brij-35, […] GFP-STAT1, 14 nM JAK1 enzyme for JAK1, 1.0 nM for JAK2 or 2.5 nM for JAK3 enzyme assays, and 4% DMSO and serial dilutions of test compound (diluted 1:3 from 20,000 to 1 nM). Following ATP/GFP-STAT1 addition, centrifuge the assay plates for 1 minute at 1000 revolutions per minute (RPM). Allow the plates to incubate at RT for 60 minutes and then add 12.5 μl of a stopping buffer containing 20 mM EDTA, 2 nM Terbium-anti-phosphorylated Signal Transducers and Activators of Transcription [phosphorylation Tyrosine 701 amino acid] […] Use ACTIVITYBASE® 4.0 to fit the percent inhibition and ten-point compound concentration data to a four-parameter logistic equation.

JAK1 [2] = target: T1, JAK1; assay: AlphaScreen SureFire p-STAT3-(p-Tyr705)-IL6-TF-1-JAK1 cell-based assay; conditions: TF-1 cells, IL6 30 ng/mL, pSTAT3
Description: AlphaScreen SureFire Protocol p-STAT3-(p-Tyr705)-IL6-TF-1-JAK1 Cell-Based Assay
The JAK1 cell based assay described below is used to determine the JAK1 cellular potency of test compounds.
Cell preparation: Starve TF-1 cells in DMEM medium with 0.5% […] and 1× Pen/Strep at 37° C. Plate 100K cells per well in BD 96 well black plates with clear bottoms. Maintain the plates at RT for 30-60 minutes before incubating overnight at 37° C., and 5% CO2. Count cells using Vi-Cell counter, using a cell suspension at […] and plated 100 μL/well in […] Biocoat plates (Catalog #354640).
Test compound preparation and treatment: Prepare compounds at 1:3 serial dilutions in DMSO and further dilute into the medium. Test compounds in a range of 10 point concentrations from 20,000 to 1 nM. Add diluted compound to corresponding cell plates. Incubate the plates at 37° C. for 20 min. Add IL6 solution at the final concentration 30 ng/mL to corresponding cell plates and continue to incubate at 37° C. for 30 min. Remove media and add 50 μL 1× lysis buffer to each well.
pSTAT3 detection: Perform the following steps sequentially: make acceptor mix (activation buffer/reaction buffer/acceptor beads); transfer 4 μL lysate from 96 well plates to 384 well-Proxiplates; add 5 μL acceptor mix to 384 proxiplate plate(s) and seal plates with aluminum seal; shake 1-2 minutes on plate shaker; incubate plate at RT for 2 hr with gentle shaking; make donor mix (donor beads in dilution buffer); add 2 μL donor mix to assay plates; seal plates with aluminum seal; shake 1-2 minutes on plate shaker; incubate at RT for 2 hr with gentle shaking; read plate with Envision; protocol AlphaScreen Surefire 384.

JAK3 = JAK3 (Homo sapiens (Human), UniProt P52333); assay: JAK LanthaScreen Kinase Assay (TR-FRET), JAK3 in vitro enzyme assay; format: biochemical; conditions: 20.0 μM ATP
Sequence of JAK3 (P52333 whole entry): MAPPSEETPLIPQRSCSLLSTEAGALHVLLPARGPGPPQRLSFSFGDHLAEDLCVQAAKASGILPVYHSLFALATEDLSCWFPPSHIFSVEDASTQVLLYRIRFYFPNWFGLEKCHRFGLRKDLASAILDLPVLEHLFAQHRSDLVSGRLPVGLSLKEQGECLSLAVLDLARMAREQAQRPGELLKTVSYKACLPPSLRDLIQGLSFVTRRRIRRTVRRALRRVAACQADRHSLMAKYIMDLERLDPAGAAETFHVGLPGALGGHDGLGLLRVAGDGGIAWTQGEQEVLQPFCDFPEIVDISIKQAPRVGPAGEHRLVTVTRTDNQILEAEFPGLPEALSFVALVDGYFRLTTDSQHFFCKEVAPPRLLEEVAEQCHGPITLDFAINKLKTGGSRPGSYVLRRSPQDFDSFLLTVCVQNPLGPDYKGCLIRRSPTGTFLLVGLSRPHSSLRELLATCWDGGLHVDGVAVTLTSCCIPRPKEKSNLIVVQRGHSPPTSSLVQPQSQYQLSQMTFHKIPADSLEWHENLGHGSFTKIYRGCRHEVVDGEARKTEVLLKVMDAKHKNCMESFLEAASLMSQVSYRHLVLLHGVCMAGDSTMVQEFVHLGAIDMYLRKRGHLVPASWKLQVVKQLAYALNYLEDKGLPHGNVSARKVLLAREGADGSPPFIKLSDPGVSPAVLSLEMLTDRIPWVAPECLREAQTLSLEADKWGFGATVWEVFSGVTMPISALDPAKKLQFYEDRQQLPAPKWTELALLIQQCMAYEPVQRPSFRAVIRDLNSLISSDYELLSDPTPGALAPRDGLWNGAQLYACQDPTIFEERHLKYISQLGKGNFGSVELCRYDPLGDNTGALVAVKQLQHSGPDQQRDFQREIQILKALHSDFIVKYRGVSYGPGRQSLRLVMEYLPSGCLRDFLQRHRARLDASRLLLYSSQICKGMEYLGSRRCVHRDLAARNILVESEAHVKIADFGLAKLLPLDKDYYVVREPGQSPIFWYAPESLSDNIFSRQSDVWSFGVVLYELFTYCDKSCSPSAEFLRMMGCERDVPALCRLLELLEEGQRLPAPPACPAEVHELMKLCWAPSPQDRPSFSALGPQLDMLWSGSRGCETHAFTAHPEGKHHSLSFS
Description: as §1

JAK2 = JAK2 (Homo sapiens (Human), UniProt O60674); assay: JAK LanthaScreen Kinase Assay (TR-FRET), JAK2 in vitro enzyme assay; format: biochemical; conditions: 5 μM ATP
Sequence of JAK2 (O60674 whole entry): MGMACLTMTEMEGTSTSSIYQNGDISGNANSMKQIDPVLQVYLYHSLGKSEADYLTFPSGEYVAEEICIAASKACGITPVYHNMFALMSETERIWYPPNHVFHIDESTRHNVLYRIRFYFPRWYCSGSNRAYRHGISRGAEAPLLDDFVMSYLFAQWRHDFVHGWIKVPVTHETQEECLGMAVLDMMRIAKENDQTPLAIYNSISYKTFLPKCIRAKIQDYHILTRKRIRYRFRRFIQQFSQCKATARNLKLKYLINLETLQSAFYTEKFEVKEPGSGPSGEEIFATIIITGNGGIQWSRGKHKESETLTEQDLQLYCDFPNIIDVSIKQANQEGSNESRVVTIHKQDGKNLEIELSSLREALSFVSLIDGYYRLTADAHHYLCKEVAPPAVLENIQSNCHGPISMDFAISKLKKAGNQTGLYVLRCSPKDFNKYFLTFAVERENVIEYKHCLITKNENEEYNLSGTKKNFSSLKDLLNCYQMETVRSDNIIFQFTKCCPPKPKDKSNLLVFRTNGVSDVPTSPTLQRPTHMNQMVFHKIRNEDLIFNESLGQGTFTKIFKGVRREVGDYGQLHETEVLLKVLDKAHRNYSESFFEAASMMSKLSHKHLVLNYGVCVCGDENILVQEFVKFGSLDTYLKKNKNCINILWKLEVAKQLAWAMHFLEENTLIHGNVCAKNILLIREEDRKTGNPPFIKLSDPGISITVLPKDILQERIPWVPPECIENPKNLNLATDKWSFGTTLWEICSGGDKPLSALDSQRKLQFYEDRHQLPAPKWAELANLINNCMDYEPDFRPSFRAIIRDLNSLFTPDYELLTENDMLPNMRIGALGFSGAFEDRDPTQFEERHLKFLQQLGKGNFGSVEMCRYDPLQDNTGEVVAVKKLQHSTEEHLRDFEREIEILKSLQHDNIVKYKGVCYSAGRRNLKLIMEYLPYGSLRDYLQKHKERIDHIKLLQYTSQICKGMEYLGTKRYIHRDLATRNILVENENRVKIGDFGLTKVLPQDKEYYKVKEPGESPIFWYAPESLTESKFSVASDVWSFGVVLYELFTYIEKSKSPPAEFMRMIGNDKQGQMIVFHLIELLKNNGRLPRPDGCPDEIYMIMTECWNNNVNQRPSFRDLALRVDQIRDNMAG
Description: as §1

T1 sequence (P23458 whole entry): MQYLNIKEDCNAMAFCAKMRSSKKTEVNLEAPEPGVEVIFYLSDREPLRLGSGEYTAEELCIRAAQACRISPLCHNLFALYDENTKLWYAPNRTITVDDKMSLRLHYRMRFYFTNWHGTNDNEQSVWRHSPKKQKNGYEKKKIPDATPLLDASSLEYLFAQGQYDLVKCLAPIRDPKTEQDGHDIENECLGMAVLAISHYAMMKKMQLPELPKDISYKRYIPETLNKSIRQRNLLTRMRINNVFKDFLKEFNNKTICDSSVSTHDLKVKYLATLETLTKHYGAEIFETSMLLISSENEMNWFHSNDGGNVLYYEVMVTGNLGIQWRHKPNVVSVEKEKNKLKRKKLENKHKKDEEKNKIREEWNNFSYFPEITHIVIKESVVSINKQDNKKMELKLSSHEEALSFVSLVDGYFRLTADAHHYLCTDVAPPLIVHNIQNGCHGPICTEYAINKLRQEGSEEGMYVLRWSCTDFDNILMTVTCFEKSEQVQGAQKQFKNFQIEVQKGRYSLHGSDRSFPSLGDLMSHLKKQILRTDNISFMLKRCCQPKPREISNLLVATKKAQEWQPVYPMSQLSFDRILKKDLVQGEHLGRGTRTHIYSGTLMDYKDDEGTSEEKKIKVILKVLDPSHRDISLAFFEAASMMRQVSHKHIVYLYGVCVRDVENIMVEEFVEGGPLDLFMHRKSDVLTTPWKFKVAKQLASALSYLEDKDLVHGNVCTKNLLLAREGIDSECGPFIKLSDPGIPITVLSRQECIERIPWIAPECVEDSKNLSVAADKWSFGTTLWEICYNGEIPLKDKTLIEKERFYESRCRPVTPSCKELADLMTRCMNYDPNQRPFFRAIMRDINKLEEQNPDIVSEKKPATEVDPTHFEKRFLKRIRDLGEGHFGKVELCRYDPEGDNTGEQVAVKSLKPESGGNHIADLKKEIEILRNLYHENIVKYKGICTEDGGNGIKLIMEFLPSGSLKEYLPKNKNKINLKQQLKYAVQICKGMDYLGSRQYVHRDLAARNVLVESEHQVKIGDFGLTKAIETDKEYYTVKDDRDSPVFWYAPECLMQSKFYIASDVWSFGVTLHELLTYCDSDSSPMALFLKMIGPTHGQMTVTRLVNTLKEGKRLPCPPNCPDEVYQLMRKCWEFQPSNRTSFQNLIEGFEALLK

| SMILES | IC50 (JAK1 [1]) | IC50 (JAK1 [2]) | IC50 (JAK3) | IC50 (JAK2) |
| --- | --- | --- | --- | --- |
| COCCCn1nc(Nc2cc(O[C@H]3CC[C@@H](NC[C@@H](O)C(F)(F)F)CC3)cc3c2ncn3C)cc1C [Example 1, (2R)-1,1,1-Trifluoro-3-({cis-4-[(4-{[1-(3-methoxypropyl)-5-methyl-1H-pyrazol-3-yl]amino}-1-methyl-1H-benzimidazol-6-yl)oxy]cyclohexyl}amino)propan-2-ol] | 3.25 ± 0.99 nM | 0.154 ± 0.023 nM | 3720 ± 1300 nM | 1200 ± 550 nM |
| COCCn1nc(Nc2cc(O[C@H]3CC[C@@H](NC[C@@H](O)C(F)(F)F)CC3)cc3c2ncn3C)cc1C [Example 2, (2R)-1,1,1-Trifluoro-3-({cis-4-[(4-{[1-(2-methoxyethyl)-5-methyl-1H-pyrazol-3-yl]amino}-1-methyl-1H-benzimidazol-6-yl)oxy]cyclohexyl}amino)propan-2-ol] | – | 0.275 ± 0.102 nM | – | – |
